The values that follow come from patent US12643882B2, “Inhibitors of human respiratory syncytial virus and metapneumovirus” (priority 2022, dated 2026).

The subject of assay [1] is RSV-A2-GFP virus. In words: microbe, parasite or virus in culture. In kind it is cell-based, Human Respiratory Syncytial Virus. The method in brief: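 IC50 (GFP-expressing cell counts by Acumen imaging) and CC50 (same-well CellTiter-Glo) were obtained by 4-parameter logistic fitting. Compounds were tested in 10-point 3-fold series for 96 h at 37° C, 5% CO2. Thawed Calu-1 ARF cells were infected at MOI 1.2 with GFP-reporter RSV-A2 in 2% FBS DMEM.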

In assay [2] the test system is hMPV-GFP virus. In words: microbe, parasite or virus in culture. The assay is classed as cell-based, human metapneumovirus. The method in brief:
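Antiviral IC50 was derived from imaging counts of GFP-expressing cells, with CC50 from a same-well CellTiter-Glo read, both by 4-parameter logistic fitting. VERO cells plus hMPV-GFP (MOI 1.25) were exposed 48 h at 37 °C to 10-point 3-fold compound dilutions (typical final 40,300–2 nM).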

[3] abbreviates: Calu-1 cells infected with RSV-A2-GFP, 96 hrs, GFP-expressing cells counted, read-out: RSV EC50.
Setting [4] is: VERO cells infected with hMPV-GFP, 48 hrs, GFP-expressing cells counted, read-out: hMPV EC50.
Where [5] appears, read: human respiratory syncytial virus, Calu-1, 96 h, read-out: RSV EC50, Calu-1 cells infected with RSV-A2-GFP, 96 hrs, GFP-expressing cells counted.
Where [6] appears, read: human metapneumovirus, Vero, 48 h, read-out: hMPV EC50, VERO cells infected with hMPV-GFP, 48 hrs, GFP-expressing cells counted.

Read-outs that look alike come from different tables or passages of the source. Where only a bound is given, the exact number is not on record here.

Usually EC50 stands for the midpoint of the concentration-response curve. In the case of `CC(C)(N)c1cc(O[C@H]2[C@@H]3CN(C(=O)c4cn(-c5ncccn5)nc4C(F)F)C[C@@H]32)nc(-c2ccc(F)cc2)c1` [Example 66, ((1R,5S,6s)-6-((4-(2-aminopropan-2-yl)-6-(4-fluorophenyl)pyridin-2-yl)oxy)-3-azabicyclo[3.1.0]hexan-3-yl)(3-(difluoromethyl)-1-(pyrimidin-2-yl)-1H-pyrazol-4-yl)methanone], the EC50 in assay [1] (setting [3]) was < 10 nM; in assay [2] (setting [4]) it was > 100 nM.
For `CC(C)(N)c1cc(O[C@H]2[C@@H]3CN(C(=O)c4cn(-c5ncccn5)nc4CO)C[C@@H]32)nc(-c2ccc(F)c(F)c2)c1` [Example 95, ((1R,5S,6s)-6-((4-(2-aminopropan-2-yl)-6-(3,4-difluorophenyl)pyridin-2-yl)oxy)-3-azabicyclo[3.1.0]hexan-3-yl)(3-(hydroxymethyl)-1-(pyrimidin-2-yl)-1H-pyrazol-4-yl)methanone], the EC50 in assay [1] (setting [5]) was < 10 nM; in assay [2] (setting [6]), > 100 nM.
For `Cc1nc(-c2ncccn2)sc1C(=O)N1C[C@@H]2[C@H](C1)[C@H]2Oc1cc(C(C)(C)N)cc(-c2ccc(C(F)(F)F)nc2)n1` [Example 28, ((1R,5S,6s)-6-((4-(2-aminopropan-2-yl)-6′-(trifluoromethyl)-[2,3′-bipyridin]-6-yl)oxy)-3-azabicyclo[3.1.0]hexan-3-yl)(4-methyl-2-(pyrimidin-2-yl)thiazol-5-yl)methanone], the figures for the EC50 in assay [1] (setting [3]) and in assay [2] (setting [4]) were < 10 nM and 10 to 100 nM, respectively.
For the molecule `Cn1nc(-c2ncccn2)cc1C(=O)N1C[C@@H]2[C@H](C1)[C@H]2Oc1cc(C(C)(C)N)cc(-c2ccc(F)c(F)c2)n1` [Example 55, ((1R,5S,6s)-6-((4-(2-aminopropan-2-yl)-6-(3,4-difluorophenyl)pyridin-2-yl)oxy)-3-azabicyclo[3.1.0]hexan-3-yl)(1-methyl-3-(pyrimidin-2-yl)-1H-pyrazol-5-yl)methanone], the EC50 is < 10 nM in assay [1] (setting [5]) and > 100 nM in assay [2] (setting [6]).
Turning to `Cc1nn(-c2ncccn2)cc1C(=O)N1C[C@@H]2[C@H](C1)[C@H]2Oc1cc(C(C)(C)N)c(F)c(-c2ccc(F)cc2)n1` [Example 119, ((1R,5S,6s)-6-((4-(2-aminopropan-2-yl)-5-fluoro-6-(4-fluorophenyl)pyridin-2-yl)oxy)-3-azabicyclo[3.1.0]hexan-3-yl)(3-methyl-1-(pyrimidin-2-yl)-1H-pyrazol-4-yl)methanone], the EC50 in assay [1] (setting [5]) was < 10 nM; in assay [2] (setting [6]), > 100 nM.
Turning to `Cc1nc(-c2ncccn2)sc1C(=O)N1C[C@@H]2C(Oc3cc(C(C)(C)N)cc(C4=CCC(C)CC4)n3)[C@@H]2C1` (mixture of isomers) [Example 46, rac-((1R,5S,6s)-6-((4-(2-aminopropan-2-yl)-6-(4-methylcyclohex-1-en-1-yl)pyridin-2-yl)oxy)-3-azabicyclo[3.1.0]hexan-3-yl)(4-methyl-2-(pyrimidin-2-yl)thiazol-5-yl)methanone], the EC50 in assay [1] (setting [3]) is < 10 nM; in assay [2] (setting [4]), > 100 nM.
For `Cc1nn(-c2ncccn2)cc1C(=O)N1C[C@@H]2[C@H](C1)[C@H]2Oc1cc(C(C)(C)N)cc(C2=CCC(C)(C)CC2)n1` [Example 90, ((1R,5S,6s)-6-((4-(2-aminopropan-2-yl)-6-(4,4-dimethylcyclohex-1-en-1-yl)pyridin-2-yl)oxy)-3-azabicyclo[3.1.0]hexan-3-yl)(3-methyl-1-(pyrimidin-2-yl)-1H-pyrazol-4-yl)methanone], in that order: < 10 nM and > 100 nM.
For `Cc1ccc(-c2cc(C(C)(C)N)cc(O[C@H]3[C@@H]4CN(C(=O)c5sc(-c6ncccn6)nc5C)C[C@@H]43)n2)c(F)c1` [Example 38, ((1R,5S,6s)-6-((4-(2-aminopropan-2-yl)-6-(2-fluoro-4-methylphenyl)pyridin-2-yl)oxy)-3-azabicyclo[3.1.0]hexan-3-yl)(4-methyl-2-(pyrimidin-2-yl)thiazol-5-yl)methanone], in that order: < 10 nM and 10 to 100 nM.
For `Cc1nn(-c2ncccn2)cc1C(=O)N1C[C@@H]2[C@H](C1)[C@H]2Oc1cc(C(C)(C)N)cc(N2CCC(C)(C)CC2C)n1` (stereo partly drawn) [Example 127A, ent-((1R,5S,6s)-6-((4-(2-aminopropan-2-yl)-6-(2,4,4-trimethylpiperidin-1-yl)pyridin-2-yl)oxy)-3-azabicyclo[3.1.0]hexan-3-yl)(3-methyl-1-(pyrimidin-2-yl)-1H-pyrazol-4-yl)methanone], in that order: < 10 nM and > 100 nM.
With `Cc1nc(-c2ncccn2)sc1C(=O)N1C[C@@H]2[C@H](C1)[C@H]2Oc1cc(C(C)(C)N)cc(-c2ccc(Cl)cc2)n1` [Example 19, ((1R,5S,6s)-6-((4-(2-aminopropan-2-yl)-6-(4-chlorophenyl)pyridin-2-yl)oxy)-3-azabicyclo[3.1.0]hexan-3-yl)(4-methyl-2-(pyrimidin-2-yl)thiazol-5-yl)methanone], the EC50 in assay [1] (setting [3]) and in assay [2] (setting [4]) was < 10 nM in each case.
For `CC(C)(N)c1cc(O[C@@H]2C[C@@H]3[C@H]2CN3C(=O)c2cn(-c3ncccn3)nc2C2CC2)nc(-c2ccc(F)cc2)c1` (single isomer, unassigned; enantiomer 2) [Example 6], the EC50 in assay [1] (setting [5]) is < 10 nM; in assay [2] (setting [6]), > 100 nM.
For `Cc1nc(-c2ncccn2)sc1C(=O)N1C[C@@H]2[C@H](C1)[C@H]2Oc1cc(C(C)(C)N)cc(-c2cc3ccccc3n2C)n1` [Example 44, ((1R,5S,6s)-6-((4-(2-aminopropan-2-yl)-6-(1-methyl-1H-indol-2-yl)pyridin-2-yl)oxy)-3-azabicyclo[3.1.0]hexan-3-yl)(4-methyl-2-(pyrimidin-2-yl)thiazol-5-yl)methanone], the EC50 in assay [1] (setting [3]) was < 10 nM; in assay [2] (setting [4]), 10 to 100 nM.
For `CC(C)(N)c1cc(O[C@H]2[C@@H]3CN(C(=O)c4cc(-c5ncccn5)ns4)C[C@@H]32)nc(-c2ccc(F)cc2)c1` [Example 77, ((1R,5S,6s)-6-((4-(2-aminopropan-2-yl)-6-(4-fluorophenyl)pyridin-2-yl)oxy)-3-azabicyclo[3.1.0]hexan-3-yl)(3-(pyrimidin-2-yl)isothiazol-5-yl)methanone] the same measures were < 10 nM and > 100 nM.
On to `Cc1nn(-c2ncccn2)cc1C(=O)N1C[C@H]2[C@H](Oc3cc(C(C)(C)N)cc(-c4ccc(F)cc4)n3)[C@@]2(C)C1` (single isomer, unassigned; enantiomer 2) [Example 107B], for which the EC50 in assay [1] (read-out: RSV EC50, Calu-1 cells infected with RSV-A2-GFP, 96 hrs, GFP-expressing cells counted) is < 10 nM; in assay [2] (read-out: hMPV EC50, VERO cells infected with hMPV-GFP, 48 hrs, GFP-expressing cells counted) it was > 100 nM.
For `COc1nn(-c2ncccn2)cc1C(=O)N1C[C@@H]2[C@H](C1)[C@H]2Oc1cc(C(C)(C)N)cc(N2CCC(C)(C)CC2)n1` [Example 122, ((1R,5S,6s)-6-((4-(2-aminopropan-2-yl)-6-(4,4-dimethylpiperidin-1-yl)pyridin-2-yl)oxy)-3-azabicyclo[3.1.0]hexan-3-yl)(3-methoxy-1-(pyrimidin-2-yl)-1H-pyrazol-4-yl)methanone], the EC50 in assay [1] (setting [5]) is < 10 nM; in assay [2] (setting [6]), > 100 nM.
`Cn1nc(-c2ncccn2)cc1C(=O)N1C[C@@H]2[C@H](C1)[C@H]2Oc1cc(C(C)(C)N)cc(-n2ccc3c(F)cccc32)n1` [Example 60, ((1R,5S,6s)-6-((4-(2-aminopropan-2-yl)-6-(4-fluoro-1H-indol-1-yl)pyridin-2-yl)oxy)-3-azabicyclo[3.1.0]hexan-3-yl)(1-methyl-3-(pyrimidin-2-yl)-1H-pyrazol-5-yl)methanone]: the EC50 in assay [1] (setting [5]) is < 10 nM; in assay [2] (setting [6]), 10 to 100 nM.
With `Cc1nc(-c2ncccn2)sc1C(=O)N1C[C@@H]2[C@H](C1)[C@H]2Oc1cc(C(C)(C)N)cc(N2CCC(C)(C)CC2)n1` [Example 123, ((1R,5S,6s)-6-((4-(2-aminopropan-2-yl)-6-(4,4-dimethylpiperidin-1-yl)pyridin-2-yl)oxy)-3-azabicyclo[3.1.0]hexan-3-yl)(4-methyl-2-(pyrimidin-2-yl)thiazol-5-yl)methanone], the EC50 in assay [1] (setting [3]) was < 10 nM; in assay [2] (setting [4]), > 100 nM.
Turning to `CC(C)(N)c1cc(O[C@H]2[C@@H]3CN(C(=O)c4cn(-c5ncccn5)nc4Cn4nccn4)C[C@@H]32)nc(-c2ccc(F)cc2)c1` [Example 130, (3-((2H-1,2,3-triazol-2-yl)methyl)-1-(pyrimidin-2-yl)-1H-pyrazol-4-yl)((1R,5S,6s)-6-((4-(2-aminopropan-2-yl)-6-(4-fluorophenyl)pyridin-2-yl)oxy)-3-azabicyclo[3.1.0]hexan-3-yl)methanone], the EC50 in assay [1] (setting [5]) is < 10 nM; in assay [2] (setting [6]) it was > 100 nM.
On to `Cc1nc(-c2ccccn2)sc1C(=O)N1C[C@@H]2[C@H](C1)[C@H]2Oc1cc(C(C)(C)N)cc(-c2ccc(F)cc2)n1` [Example 12, ((1R,5S,6s)-6-((4-(2-aminopropan-2-yl)-6-(4-fluorophenyl)pyridin-2-yl)oxy)-3-azabicyclo[3.1.0]hexan-3-yl)(4-methyl-2-(pyridin-2-yl)thiazol-5-yl)methanone], for which the EC50 in assay [1] (setting [3]) was < 10 nM; in assay [2] (setting [4]), > 100 nM.
On to `Cc1nc(-c2ncccn2)sc1C(=O)N1C[C@@H]2[C@H](C1)[C@H]2Oc1cc(C(C)(C)N)cc(-c2ccc(F)cc2F)n1` [Example 97, ((1R,5S,6s)-6-((4-(2-aminopropan-2-yl)-6-(2,4-difluorophenyl)pyridin-2-yl)oxy)-3-azabicyclo[3.1.0]hexan-3-yl)(4-methyl-2-(pyrimidin-2-yl)thiazol-5-yl)methanone], for which the EC50 was < 10 nM in assay [1] (setting [5]) and 10 to 100 nM in assay [2] (setting [6]).
